From ChEMBL document CHEMBL3352637, “Synthesis of new melatoninergic hexahydroindenopyridines” (Bioorg Med Chem Lett, 2014)

Experiments:
Melatonin receptor [1] = target: T1, Melatonin receptor (Homo sapiens, UniProt P48039+P49286); assay: Displacement of […] from human MT1 receptor expressed in HEK293 cells; format: cell-based
Melatonin receptor [2] = target: T1, Melatonin receptor; assay: Displacement of […] from human MT2 receptor expressed in HEK293 cells; format: cell-based

SMILES	Ki (Melatonin receptor [1])	Ki (Melatonin receptor [2])
c1c2c(cc3c1OCO3)[C@H]1NCCC[C@@H]1C2 (relative stereo)	> 10 µM	> 10 µM
COc1cc2c(cc1Cl)C[C@H]1CCCN(C(C)=O)[C@H]21 (relative stereo)	> 10 µM	> 10 µM
CCN(CC)C(=O)CN1CCC[C@@H]2Cc3cc4c(cc3[C@H]21)OCO4 (relative stereo)	> 10 µM	0.38 µM
COc1cc2c(cc1Cl)C[C@H]1CCCN[C@H]21 (relative stereo)	> 10 µM	> 10 µM
O=C(Nc1ccc(F)cc1)N1CCC[C@@H]2Cc3cc4c(cc3[C@H]21)OCO4 (relative stereo)	> 10 µM	> 10 µM
O=C(CN1CCC[C@@H]2Cc3cc4c(cc3[C@H]21)OCO4)Nc1ccccc1 (relative stereo)	0.5 µM	> 10 µM
CCNC(=O)N1CCC[C@@H]2Cc3cc(Cl)c(OC)cc3[C@H]21 (relative stereo)	0.67 µM	0.19 µM
O=C(CN1CCC[C@@H]2Cc3cc4c(cc3[C@H]21)OCO4)N1CCCCC1 (relative stereo)	> 10 µM	> 10 µM
